Like-named read-outs stand apart in the source and are kept apart here.
Assays:
Type in all cases: cell-based
LUDLU-1 = assay: SRB anti-proliferative assay, LUDLU-1, with CalcuSyn combination index (Example 1); conditions: Homo sapiens, LUDLU-1, 72 h, read-out: Zah. (inhibition of proliferation)
Protocol: (§1) Cells were thawed from ampoules stored in liquid nitrogen and cultured in petri dishes in appropriate culture medium according to Table 2, in a humidified 5% CO2 atmosphere at 37° C. Cells were passaged twice weekly using EDTA-Trypsin solution, pH 8. Counted cells with a viability of at least 90% as assessed with Trypan-Blue solution were used for anti-proliferative assays.
(§2) Twenty-four hours before the addition of the test compounds/combinations, cells were seeded into 384-well plates at 50 μL/well and a density of 10^3 cells/well, in the appropriate culture medium.
(§3) Solutions of the compounds were diluted in the test medium-RPMI-1640 and Opti-MEM in a 1:1 ratio, and the medium was supplemented with 2 mM glutamine and 5% fetal bovine serum FBS. After 72 h, colourimetric assessment of cell growth was performed by SRB. […] Unbound dye was removed by washing the plates (4×) in 1% (v/v) acetic acid, and protein-bound dye was extracted with 10 mM unbuffered Tris base and the optical density (A=540 nm) was determined in a BioTek Synergy H4 Hybrid computer microplate reader (BioTek Instruments USA). The entire washing/staining procedure was performed using a BioTek EL406 washing station (BioTek Instruments USA). The raw absorbance results were analysed in Microsoft Excel software using the formula:
(§4) [formula] • Where: • % Zahlnh-inhibition of proliferation • Am—absorbance of wells without cells (medium) • Ak—absorbance of control wells (cells treated with pure culture medium) • Ap—absorbance of wells treated with compounds
(§5) Each compound at the indicated concentrations was tested in triplicate in one experiment. Each experiment was repeated three times. Data analysis was supplemented with synergy assessment using CalcuSyn software. […] A CI value below 0.8 indicates synergism, 0.8-1.2 an additive effect, above 1.2 an antagonism.

8MGBA = assay: SRB anti-proliferative assay, 8MGBA, molecular combination and nanoparticles, with combination index (Example III); conditions: Homo sapiens, 8-MG-BA, 72 h
Protocol: (§6) Cells were thawed from ampoules stored in liquid nitrogen and cultured in petri dishes in the appropriate culture medium according to Table 16, in a humidified 5% CO2 atmosphere at 37° C. Cells were passaged twice weekly using EDTA-Trypsin solution, pH 8, as a separating agent. Counted cells with a viability of at least 90% as assessed with Trypan-Blue solution were used for anti-proliferation assays.
(§7) Twenty-four hours before the addition of the test compounds/combinations, cells were seeded into 384-well plates at 50 μL/well and a density of 10^3 cells/well, in the appropriate culture medium. […] Solutions of the compounds were diluted in the test medium—RPMI-1640 and Opti-MEM in a 1:1 ratio, and the medium was supplemented with 2 mM glutamine and 5% fetal bovine serum FBS.
as §3, with “After” for “Solutions of the compounds were diluted in the test medium-RPMI-1640 and Opti-MEM in a 1:1 ratio, and the medium was supplemented with 2 mM glutamine and 5% fetal bovine serum FBS. After”
as §4, §5

A172 = assay: SRB anti-proliferative assay, A172, molecular combination and nanoparticles, with combination index (Example III); conditions: Homo sapiens, A 172, 72 h, read-out: Zah. (inhibition of proliferation)
Protocol: as §6, §7
as §3, with “After” for “Solutions of the compounds were diluted in the test medium-RPMI-1640 and Opti-MEM in a 1:1 ratio, and the medium was supplemented with 2 mM glutamine and 5% fetal bovine serum FBS. After”
as §4, §5

NCI-H226 = assay: SRB anti-proliferative assay, NCI-H226, with CalcuSyn combination index (Example 1); conditions: Homo sapiens, NCI-H226, 72 h, read-out: Zah. (inhibition of proliferation)
Protocol: as §1, §2, §3, §4, §5

## C=CCNC1=C2C[C@@H](C)C[C@H](OC)[C@H](O)[C@@H](C)/C=C(\C)[C@H](OC(N)=O)[C@@H](OC)/C=C\C=C(/C)C(=O)NC(=CC1=O)C2=O [17AAG, 17-AAG (tanespimycin)]
LUDLU-1
  inhibition at 0.0031 µM: 6.1%
  inhibition at 0.01 µM: 20.4%
  inhibition at 0.0314 µM: 47.8%
  inhibition at 0.1 µM: 66.9%
  inhibition at 0.3139 µM: 74.1%
  inhibition at 1 µM: 78.6%
  inhibition at 3.1546 µM: 83.3%
  inhibition at 10 µM: 86.3%
8MGBA; read-out: Zah. (inhibition of proliferation), 17AAG 0.3163 nM, Tables 18a/19a
  inhibition at 0.0003163 µM: -3.9%
8MGBA; read-out: Zah. (inhibition of proliferation), 17AAG 0.3163 nM, Tables 21a/22a
  inhibition at 0.0003163 µM: 6%
8MGBA; read-out: Zah. (inhibition of proliferation), 17AAG 1 nM, Tables 18a/19a
  inhibition at 0.001 µM: 9.8%
8MGBA; read-out: Zah. (inhibition of proliferation), 17AAG 1 nM, Tables 21a/22a
  inhibition at 0.001 µM: 15.7%
8MGBA; read-out: Zah. (inhibition of proliferation), 17AAG 3.2 nM, Tables 18a/19a
  inhibition at 0.0032 µM: 64.9%
8MGBA; read-out: Zah. (inhibition of proliferation), 17AAG 3.2 nM, Tables 21a/22a
  inhibition at 0.0032 µM: 4.7%
8MGBA; read-out: Zah. (inhibition of proliferation), 17AAG 10 nM, Tables 18a/19a
  inhibition at 0.01 µM: 89.5%
8MGBA; read-out: Zah. (inhibition of proliferation), 17AAG 10 nM, Tables 21a/22a
  inhibition at 0.01 µM: 7.8%
8MGBA; read-out: Zah. (inhibition of proliferation), 17AAG 31.6 nM, Tables 18a/19a
  inhibition at 0.0316 µM: 88.5%
8MGBA; read-out: Zah. (inhibition of proliferation), 17AAG 31.6 nM, Tables 21a/22a
  inhibition at 0.0316 µM: 20.1%
8MGBA; read-out: Zah. (inhibition of proliferation), 17AAG 100 nM, Tables 18a/19a
  inhibition at 0.1 µM: 84.3%
8MGBA; read-out: Zah. (inhibition of proliferation), 17AAG 100 nM, Tables 21a/22a
  inhibition at 0.1 µM: 37.4%
8MGBA; read-out: Zah. (inhibition of proliferation), 17AAG 316.3 nM, Tables 18a/19a
  inhibition at 0.3163 µM: 86%
8MGBA; read-out: Zah. (inhibition of proliferation), 17AAG 316.3 nM, Tables 21a/22a
  inhibition at 0.3163 µM: 64.6%
8MGBA; read-out: Zah. (inhibition of proliferation), 17AAG 1000 nM, Tables 18a/19a
  inhibition at 1 µM: 91.9%
8MGBA; read-out: Zah. (inhibition of proliferation), 17AAG 1000 nM, Tables 21a/22a
  inhibition at 1 µM: 81.1%
8MGBA; read-out: Zah. (inhibition of proliferation), 72 h, 17AAG 0.3163 nM
  inhibition at 0.0003163 µM: -3.9%
8MGBA; read-out: Zah. (inhibition of proliferation), 72 h, 17AAG 1 nM
  inhibition at 0.001 µM: 9.8%
8MGBA; read-out: Zah. (inhibition of proliferation), 72 h, 17AAG 3.2 nM
  inhibition at 0.0032 µM: 64.9%
8MGBA; read-out: Zah. (inhibition of proliferation), 72 h, 17AAG 10 nM
  inhibition at 0.01 µM: 89.5%
8MGBA; read-out: Zah. (inhibition of proliferation), 72 h, 17AAG 31.6 nM
  inhibition at 0.0316 µM: 88.5%
8MGBA; read-out: Zah. (inhibition of proliferation), 72 h, 17AAG 100 nM
  inhibition at 0.1 µM: 84.3%
8MGBA; read-out: Zah. (inhibition of proliferation), 72 h, 17AAG 316.3 nM
  inhibition at 0.3163 µM: 86%
8MGBA; read-out: Zah. (inhibition of proliferation), 72 h, 17AAG 1000 nM
  inhibition at 1 µM: 91.9%
A172
  inhibition at 0.0003163 µM: 6%
  inhibition at 0.001 µM: 15.7%
  inhibition at 0.0032 µM: 4.7%
  inhibition at 0.01 µM: 7.8%
  inhibition at 0.0316 µM: 20.1%
  inhibition at 0.1 µM: 37.4%
  inhibition at 0.3163 µM: 64.6%
  inhibition at 1 µM: 81.1%
NCI-H226
  inhibition at 0.0031 µM: 19.3%
  inhibition at 0.01 µM: 27.3%
  inhibition at 0.03 µM: 32%
  inhibition at 0.1 µM: 43.8%
  inhibition at 0.3124 µM: 54.8%
  inhibition at 1 µM: 60.4%
  inhibition at 3.1392 µM: 71.9%
  inhibition at 10 µM: 72.6%
